Experimental data as given in ChEMBL document CHEMBL1268934, “Design, synthesis, and subtype selectivity of 3,6-disubstituted β-carbolines at Bz/GABA(A)ergic receptors. SAR and studies directed toward agents for treatment of alcohol abuse” (Bioorg Med Chem, 2010).

Key:
[1] = biological target: T1, GABA-A receptor; alpha-2/beta-3/gamma-2 (Homo sapiens, UniProt P18507+P28472+P47869); assay: Displacement of [3H]flunitrazepam from human recombinant GABAA alpha-2-beta-3-gamma-2 receptor expressed in HEK cells by liquid scintillation counting; type: cell-based, HEK293
T1 sequence (P18507 whole entry): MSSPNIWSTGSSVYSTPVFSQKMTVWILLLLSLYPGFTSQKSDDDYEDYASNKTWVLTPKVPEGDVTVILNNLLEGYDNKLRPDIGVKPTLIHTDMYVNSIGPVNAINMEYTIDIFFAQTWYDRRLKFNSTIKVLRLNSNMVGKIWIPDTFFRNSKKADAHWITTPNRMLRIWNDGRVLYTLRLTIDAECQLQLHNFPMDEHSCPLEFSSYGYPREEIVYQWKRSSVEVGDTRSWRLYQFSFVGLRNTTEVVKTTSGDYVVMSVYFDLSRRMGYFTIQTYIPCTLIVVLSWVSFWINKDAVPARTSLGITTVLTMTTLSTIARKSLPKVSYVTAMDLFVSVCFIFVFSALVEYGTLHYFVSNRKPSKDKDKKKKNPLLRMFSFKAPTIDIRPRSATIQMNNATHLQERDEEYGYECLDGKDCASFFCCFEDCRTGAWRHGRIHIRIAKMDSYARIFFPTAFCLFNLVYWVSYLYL
T1 sequence (P28472 whole entry): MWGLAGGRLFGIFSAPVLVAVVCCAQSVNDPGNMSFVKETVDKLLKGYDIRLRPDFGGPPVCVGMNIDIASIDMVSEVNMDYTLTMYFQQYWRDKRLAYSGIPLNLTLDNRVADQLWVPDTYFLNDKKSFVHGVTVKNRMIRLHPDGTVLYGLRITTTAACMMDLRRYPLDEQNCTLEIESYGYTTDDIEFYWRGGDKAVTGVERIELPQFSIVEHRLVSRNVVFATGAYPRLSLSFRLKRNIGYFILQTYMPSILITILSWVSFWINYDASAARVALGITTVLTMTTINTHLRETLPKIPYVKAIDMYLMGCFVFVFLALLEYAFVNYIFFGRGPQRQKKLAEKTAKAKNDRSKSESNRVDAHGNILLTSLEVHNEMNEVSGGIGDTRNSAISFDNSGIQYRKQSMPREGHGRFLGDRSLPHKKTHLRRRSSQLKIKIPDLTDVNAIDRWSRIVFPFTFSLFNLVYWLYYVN
T1 sequence (P47869 whole entry): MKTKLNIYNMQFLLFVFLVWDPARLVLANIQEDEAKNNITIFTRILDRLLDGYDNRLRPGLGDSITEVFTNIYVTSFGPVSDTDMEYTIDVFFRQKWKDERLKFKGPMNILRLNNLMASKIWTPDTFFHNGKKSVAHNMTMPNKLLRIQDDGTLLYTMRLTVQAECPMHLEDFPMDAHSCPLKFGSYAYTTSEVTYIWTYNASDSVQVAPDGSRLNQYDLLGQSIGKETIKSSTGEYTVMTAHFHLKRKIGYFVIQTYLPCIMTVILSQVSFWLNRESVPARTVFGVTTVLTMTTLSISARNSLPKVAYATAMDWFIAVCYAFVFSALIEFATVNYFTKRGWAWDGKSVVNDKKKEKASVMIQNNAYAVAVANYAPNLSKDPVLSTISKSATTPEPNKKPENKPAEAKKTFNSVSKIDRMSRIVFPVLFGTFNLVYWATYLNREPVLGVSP

[2] = biological target: T2, GABA A receptor alpha-4/beta-3/gamma-2 (Homo sapiens, UniProt P18507+P28472+P48169); assay: Displacement of [3H]flunitrazepam from human recombinant GABAA alpha-4-beta-3-gamma-2 receptor expressed in HEK cells by liquid scintillation counting; type: cell-based, HEK293
[3] = biological target: T3, GABA-A receptor; alpha-3/beta-3/gamma-2 (Homo sapiens, UniProt P18507+P28472+P34903); assay: Displacement of [3H]flunitrazepam from human recombinant GABAA alpha-3-beta-3-gamma-2 receptor expressed in HEK cells by liquid scintillation counting; type: cell-based, HEK293
T3 sequence (P18507 whole entry): T1 sequence (P18507 whole entry)
T3 sequence (P28472 whole entry): T1 sequence (P28472 whole entry)
T3 sequence (P34903 whole entry): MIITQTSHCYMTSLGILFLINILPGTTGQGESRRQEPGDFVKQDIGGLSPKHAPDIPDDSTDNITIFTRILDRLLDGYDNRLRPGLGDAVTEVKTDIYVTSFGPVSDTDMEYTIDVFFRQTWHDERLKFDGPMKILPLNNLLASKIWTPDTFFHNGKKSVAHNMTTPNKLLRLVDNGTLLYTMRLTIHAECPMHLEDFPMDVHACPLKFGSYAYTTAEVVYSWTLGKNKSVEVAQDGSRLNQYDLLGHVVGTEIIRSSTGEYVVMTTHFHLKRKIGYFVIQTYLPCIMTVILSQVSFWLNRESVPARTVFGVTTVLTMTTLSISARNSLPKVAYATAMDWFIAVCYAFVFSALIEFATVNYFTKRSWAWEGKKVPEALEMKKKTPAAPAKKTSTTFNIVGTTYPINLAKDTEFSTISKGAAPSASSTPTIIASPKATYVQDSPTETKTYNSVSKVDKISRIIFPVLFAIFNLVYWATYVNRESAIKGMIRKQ

[4] = biological target: T4, GABA-A receptor; alpha-5/beta-3/gamma-2 (Homo sapiens, UniProt P18507+P28472+P31644); assay: Displacement of [3H]flunitrazepam from human recombinant GABAA alpha-5-beta-3-gamma-2 receptor expressed in HEK cells by liquid scintillation counting; type: cell-based, HEK293
T4 sequence (P18507 whole entry): T1 sequence (P18507 whole entry)
T4 sequence (P28472 whole entry): T1 sequence (P28472 whole entry)
T4 sequence (P31644 whole entry): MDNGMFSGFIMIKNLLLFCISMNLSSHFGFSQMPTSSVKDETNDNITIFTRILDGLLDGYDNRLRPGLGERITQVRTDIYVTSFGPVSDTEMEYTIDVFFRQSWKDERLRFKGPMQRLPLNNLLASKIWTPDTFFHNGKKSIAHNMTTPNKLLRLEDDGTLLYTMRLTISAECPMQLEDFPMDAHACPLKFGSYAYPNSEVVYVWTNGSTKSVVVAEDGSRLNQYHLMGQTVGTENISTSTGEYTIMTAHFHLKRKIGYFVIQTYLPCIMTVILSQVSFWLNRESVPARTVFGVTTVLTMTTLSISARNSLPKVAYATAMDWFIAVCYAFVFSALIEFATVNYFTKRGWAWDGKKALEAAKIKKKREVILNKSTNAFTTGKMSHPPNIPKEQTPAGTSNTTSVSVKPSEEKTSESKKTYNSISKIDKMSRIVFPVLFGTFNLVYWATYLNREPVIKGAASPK

[5] = biological target: GABA-A receptor; alpha-6/beta-3/gamma-2 (Homo sapiens, UniProt P18507+P28472+Q16445); assay: Displacement of [3H]flunitrazepam from human recombinant GABAA alpha-6-beta-3-gamma-2 receptor expressed in HEK cells by liquid scintillation counting; type: cell-based, HEK293
[6] = biological target: T5, GABA-A receptor; alpha-1/beta-3/gamma-2 (Homo sapiens, UniProt P14867+P18507+P28472); assay: Displacement of [3H]flunitrazepam from human recombinant GABAA alpha-1-beta-3-gamma-2 receptor expressed in HEK cells by liquid scintillation counting; type: cell-based, HEK293
T5 sequence (P14867 whole entry): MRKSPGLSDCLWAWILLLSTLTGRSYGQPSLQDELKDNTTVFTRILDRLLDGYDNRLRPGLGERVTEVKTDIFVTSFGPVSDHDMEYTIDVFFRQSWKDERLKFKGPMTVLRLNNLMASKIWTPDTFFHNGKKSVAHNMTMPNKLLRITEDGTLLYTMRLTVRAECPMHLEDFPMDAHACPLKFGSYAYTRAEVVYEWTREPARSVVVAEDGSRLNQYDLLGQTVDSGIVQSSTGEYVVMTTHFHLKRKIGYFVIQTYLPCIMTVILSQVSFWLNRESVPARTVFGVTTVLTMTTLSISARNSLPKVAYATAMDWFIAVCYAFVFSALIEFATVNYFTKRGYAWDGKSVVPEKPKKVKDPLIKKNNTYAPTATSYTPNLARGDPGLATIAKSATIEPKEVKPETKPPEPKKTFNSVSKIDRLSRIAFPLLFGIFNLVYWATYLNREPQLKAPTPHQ
T5 sequence (P18507 whole entry): T1 sequence (P18507 whole entry)
T5 sequence (P28472 whole entry): T1 sequence (P28472 whole entry)

[7] = biological target: GABA-A receptor; alpha-2/beta-3/gamma-2 (Homo sapiens) (UniProt P18507+P28472+P47869); assay: Agonist activity at human recombinant GABAA alpha-2-beta-3-gamma-2 receptor expressed in Xenopus oocytes at 1 to 10 uM by patch clamp technique; type: functional, cell-based; details: Oocyte
[8] = biological target: T2, GABA A receptor alpha-4/beta-3/gamma-2; assay: Agonist activity at human recombinant GABAA alpha-4-beta-3-gamma-2 receptor expressed in Xenopus oocytes at 1 to 10 uM by patch clamp technique; type: functional, cell-based; details: Oocyte
[9] = biological target: GABA-A receptor; alpha-3/beta-3/gamma-2 (Homo sapiens) (UniProt P18507+P28472+P34903); assay: Agonist activity at human recombinant GABAA alpha-3-beta-3-gamma-2 receptor expressed in Xenopus oocytes at 1 to 10 uM by patch clamp technique; type: functional, cell-based; details: Oocyte
[10] = biological target: GABA-A receptor; alpha-1/beta-3/gamma-2 (Homo sapiens) (UniProt P14867+P18507+P28472); assay: Agonist activity at human recombinant GABAA alpha-1-beta-3-gamma-2 receptor expressed in Xenopus oocytes at 1 to 10 uM by patch clamp technique; type: functional, cell-based; details: Oocyte
[11] = biological target: GABA-A receptor; alpha-5/beta-3/gamma-2 (Homo sapiens) (UniProt P18507+P28472+P31644); assay: Agonist activity at human recombinant GABAA alpha-5-beta-3-gamma-2 receptor expressed in Xenopus oocytes at 1 to 10 uM by patch clamp technique; type: functional, cell-based; details: Oocyte

T2 sequence (P48169 whole entry, one chain of several): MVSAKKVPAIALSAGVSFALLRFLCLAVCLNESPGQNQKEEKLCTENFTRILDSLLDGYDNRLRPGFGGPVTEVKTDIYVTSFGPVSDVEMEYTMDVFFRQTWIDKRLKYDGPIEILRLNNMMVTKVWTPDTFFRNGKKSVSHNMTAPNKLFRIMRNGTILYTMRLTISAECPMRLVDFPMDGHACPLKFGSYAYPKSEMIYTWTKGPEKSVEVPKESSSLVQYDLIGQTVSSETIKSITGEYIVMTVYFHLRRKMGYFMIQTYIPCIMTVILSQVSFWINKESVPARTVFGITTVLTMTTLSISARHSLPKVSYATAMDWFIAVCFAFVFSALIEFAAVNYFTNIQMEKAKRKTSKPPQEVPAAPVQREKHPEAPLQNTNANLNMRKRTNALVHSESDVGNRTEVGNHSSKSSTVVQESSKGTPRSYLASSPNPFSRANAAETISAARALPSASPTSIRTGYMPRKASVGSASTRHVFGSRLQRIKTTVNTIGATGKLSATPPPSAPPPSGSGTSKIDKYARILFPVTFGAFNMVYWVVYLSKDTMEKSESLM
GABA-A receptor; alpha-6/beta-3/gamma-2, sequence (Q16445 whole entry, one chain of several): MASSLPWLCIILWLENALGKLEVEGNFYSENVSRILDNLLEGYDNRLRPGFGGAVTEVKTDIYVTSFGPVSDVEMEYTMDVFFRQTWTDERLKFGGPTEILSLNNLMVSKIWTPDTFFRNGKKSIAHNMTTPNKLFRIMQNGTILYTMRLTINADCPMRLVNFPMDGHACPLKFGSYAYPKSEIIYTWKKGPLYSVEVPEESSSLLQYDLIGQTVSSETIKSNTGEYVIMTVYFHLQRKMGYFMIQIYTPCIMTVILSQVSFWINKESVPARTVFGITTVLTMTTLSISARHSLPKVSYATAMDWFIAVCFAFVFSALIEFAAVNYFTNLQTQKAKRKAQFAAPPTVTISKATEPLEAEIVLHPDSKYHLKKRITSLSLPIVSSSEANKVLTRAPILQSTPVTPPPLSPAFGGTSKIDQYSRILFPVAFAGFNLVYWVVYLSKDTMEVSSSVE

SMILES | Ki [1] [nM] | Ki ([2]; read-out: Ki) [nM] | Ki [3] [nM] | Ki [4] [nM] | Ki [5] [nM] | Ki [6] [nM] | Ki ([2]; hek293) | Activity [7] [%] | Activity [8] [%] | Activity [9] [%] | Activity [10] [%] | Activity [11] [%]
CC(C)(C)OC(=O)c1cc2c(cn1)[nH]c1ccc(I)cc12 | 44.9 | > 4000 | 123 | 65.3 | > 4000 | 14.4 |  |  |  |  |  | 
C[C@H](OC(=O)c1cc2c(cn1)[nH]c1ccccc12)C(F)(F)F | 931 | > 3000 | 172 | 1850 | > 2000 | 90 |  |  |  |  |  | 
CC[C@H](C)OC(=O)c1cc2c(cn1)[nH]c1ccccc12 |  |  |  |  | > 2000 |  | Not Active |  |  |  |  | 
CC(C)(C)OC(=O)c1cc2c3ccccc3nc-2c[nH]1 |  | 1000 |  |  |  |  |  | 99 | 107 | 108 | 96 | 88
C[Si](C)(C)C#Cc1ccc2[nH]c3cnc(C(=O)OCC(F)(F)F)cc3c2c1 | 59 | 200 | 88 | 1440 | > 3000 | 17 |  |  |  |  |  | 
CC(C)(C)OC(=O)c1ccc2[nH]c3ccc(C#Cc4ccc5[nH]c6ccc(C(=O)OC(C)(C)C)cc6c5c4)cc3c2c1 | 124 |  | 100 | > 300 | > 4000 | 30 |  |  |  |  |  | 
O=C(OCC(F)(F)F)c1cc2c(cn1)[nH]c1ccccc12 | 24.5 | > 500 | 41.7 | 126 | > 2000 | 3 |  |  |  |  |  | 
CCOC(=O)c1ncn2c1CN(C)C(=O)c1cc(F)ccc1-2 |  |  |  |  |  |  |  |  |  | 118 | 99 | 96
CCC(OC(=O)c1cc2c(cn1)[nH]c1ccccc12)C(F)(F)F (stereo unspecified) |  |  |  |  | > 2000 |  | Not Active |  |  |  |  | 
CC(C)(C)OC(=O)c1cc2c(cn1)[nH]c1ccc(C#Cc3ccc4[nH]c5cnc(C(=O)OC(C)(C)C)cc5c4c3)cc12 | 124 | > 300 | 100 | > 300 | > 4000 | 30 |  |  |  |  |  | 
CCC(C)OC(=O)c1cc2c(cn1)[nH]c1ccccc12 (stereo unspecified) | 60 |  | 116 | 216 | > 2000 | 18 | Not Active |  |  |  |  | 
CCOC(=O)c1ncc2[nH]c3cccc(OC(C)C)c3c2c1C |  |  |  |  |  |  |  |  |  |  |  | 96
CCCC(=O)c1cc2c(cn1)[nH]c1ccc(F)cc12 | 27 |  | 40 | 254 | > 2500 | 3.7 | Not Active |  |  |  |  | 
CC(C)CCOc1cc2c3ccccc3nc-2c[nH]1 | 3000 |  | 3000 | 3000 | 10000 |  |  |  |  |  |  | 
C[C@@H](OC(=O)c1cc2c(cn1)[nH]c1ccccc12)C(F)(F)F | 343 | > 3000 | 453 | 1850 | > 2000 | 27 |  |  |  |  |  | 
